According to ChEMBL document CHEMBL5614371, “Quinazolines annelated at the N(3)-C(4) bond: Synthesis and biological activity” (Eur J Med Chem, 2024):
Converted amounts (≈) assume the structure as drawn.

Legend:
HCT-116 [1] = experiment: cells; details: Homo sapiens, HCT-116, 24 h
HepG2 [2] = experiment: cells; details: Homo sapiens, HepG2, 24 h
HepG2 [3] = experiment: cells; details: Homo sapiens, HepG2, 48 h
A549 [4] = experiment: cells; details: Homo sapiens, A549, 48 h
MCF7 [5] = experiment: cells; details: Homo sapiens, MCF7, 48 h
A549 [6] = experiment: cells; details: Homo sapiens, A549, 48 h; remark: listed apart in the source
HCT-116 [7] = experiment: cells; details: Homo sapiens
MCF7 [8] = experiment: cells; details: Homo sapiens
MCF7 [9] = experiment: cells; details: Homo sapiens; remark: listed apart in the source
MCF7 [10] = experiment: cells; details: Homo sapiens, MCF7, 48 h; remark: listed apart in the source
MCF7 [11] = experiment: cells; details: Homo sapiens, MCF7, 24 h
HepG2 [12] = experiment: cells; details: Homo sapiens, HepG2, 48 h; remark: listed apart in the source
MCF7 [13] = experiment: cells; details: Homo sapiens, MCF7, 48 h; remark: listed apart in the source
HepG2 [14] = experiment: cells; details: Homo sapiens, HepG2, 48 h; remark: listed apart in the source
MCF7 [15] = experiment: cells; details: Homo sapiens, MCF7, 48 h; remark: listed apart in the source
MCF7 [16] = experiment: cells; details: Homo sapiens, MCF7, 48 h; remark: listed apart in the source
HCT-116 [17] = experiment: cells; details: Homo sapiens; remark: listed apart in the source
HepG2 [18] = experiment: cells; details: Homo sapiens
HCT-116 [19] = experiment: cells; details: Homo sapiens, HCT-116, 48 h
NCI-H1299 [20] = experiment: cells; details: Homo sapiens, NCI-H1299, 48 h
MDA-MB-231 [21] = experiment: cells; details: Homo sapiens, MDA-MB-231, 48 h
Staphylococcus aureus [22] = experiment: microbe, parasite or virus in culture; details: ATCC 25923
Streptococcus pyogenes [23] = experiment: microbe, parasite or virus in culture; details: ATCC 19615
NCI-H1299 [24] = experiment: cells; details: Homo sapiens, NCI-H1299, 48 h; remark: listed apart in the source
A549 [25] = experiment: cells; details: Homo sapiens, A549, 48 h; remark: listed apart in the source
cells = details: Homo sapiens, Breast carcinoma cell
NCI-H1299 [26] = experiment: cells; details: Homo sapiens
MDA-MB-231 [27] = experiment: cells; details: Homo sapiens, MDA-MB-231, 48 h; remark: listed apart in the source
HepG2 [28] = experiment: cells; details: Homo sapiens, HepG2, 48 h; remark: listed apart in the source
HCT-116 [29] = experiment: cells; details: Homo sapiens, HCT-116, 48 h; remark: listed apart in the source
[30] = system: Mycobacterium tuberculosis; experiment: microbe, parasite or virus in culture; details: H37Rv ATCC 27294, 168 h
[31] = system: Mycobacterium tuberculosis; experiment: microbe, parasite or virus in culture; details: H37Rv
HCT-116 [32] = experiment: cells; details: Homo sapiens; remark: listed apart in the source
HepG2 [33] = experiment: cells; details: Homo sapiens; remark: listed apart in the source
U-87 MG = experiment: cells; details: Homo sapiens, 72 h
HCT-116 [34] = experiment: cells; details: Homo sapiens, HCT-116, 72 h
A549 [35] = experiment: cells; details: Homo sapiens, A549, 72 h
Escherichia coli = experiment: microbe, parasite or virus in culture
Bacillus subtilis = experiment: microbe, parasite or virus in culture
Trichoderma viride = experiment: microbe, parasite or virus in culture
Staphylococcus aureus [36] = experiment: microbe, parasite or virus in culture
Streptococcus pyogenes [37] = experiment: microbe, parasite or virus in culture
Aspergillus niger = experiment: microbe, parasite or virus in culture
Candida albicans = experiment: microbe, parasite or virus in culture
Klebsiella pneumoniae = experiment: microbe, parasite or virus in culture

Compound: O=C(N/N=C/c1ccccc1O)c1ccc(Nc2nc3ccccc3c3nncn23)cc1
- IC50 (HCT-116 [1]): 7.1 µM
- IC50 (HepG2 [2]): 7.42 µM

Compound: c1ccc(C2CC(c3ccc(Nc4nc5ccccc5c5nncn45)cc3)=NN2)cc1 (configuration not stated)
- IC50 (HepG2 [3]): 16.1 µM

Compound: c1ccc2cc(-c3cc4c5ccccc5ncn4n3)ccc2c1
- GI50 (A549 [4]): 1.98 µM
- GI50 (MCF7 [5]): 2.03 µM

Compound: Clc1ccc2c(c1)cc1c3ccccc3nc(-c3ccccc3)n21
- IC50 (A549 [6]): 30.7 µM

Compound: COc1ccc(-c2nc3ccccc3c3cc4cc(Cl)ccc4n23)cc1
- IC50 (A549 [6]): 30.7 µM

Compound: Clc1ccc(-c2nc3ccccc3c3cc4cc(Cl)ccc4n23)cc1
- IC50 (A549 [6]): 30.7 µM

Compound: CN(C)c1nc2ccccc2c2nncn12
- IC50 (HCT-116 [7]): 22.5 µM

Compound: S=C(NNc1nc2ccccc2c2nncn12)NC1CCCCC1
- IC50 (DNA): 48.1 µM

Compound: CN(C)c1ccc(/C=N/NC(=O)c2ccc(Nc3nc4ccccc4c4nncn34)cc2)cc1
- IC50 (HCT-116 [1]): 8.27 µM
- IC50 (HepG2 [2]): 7.91 µM

Compound: O=C(/C=C\c1nc2ccccc2c2nc3ccccc3n12)c1ccc(Cl)c(Cl)c1
- IC50 (MCF7 [8]): 61 µg/mL (≈ 146 µM)
- IC50 (MCF7 [9]): 61 µg/mL (≈ 146 µM)

Compound: Cc1ccc2nc(-c3ccccc3)n3c4ccccc4cc3c2c1
- IC50 (A549 [6]): 30.7 µM

Compound: N#CC1=CC=C2c3cc(Cl)c(Br)cc3N=CN2C1N (configuration not stated)
- IC50 (MCF7 [10]): 3.45 µg/mL (≈ 10.3 µM)

Compound: CCOC(=O)c1ccc2c3cc(Cl)c(Br)cc3ncn2c1=O
- IC50 (MCF7 [11]): 3.44 µg/mL (≈ 9.01 µM)

Compound: c1ccc(Nc2ccccc2-c2nc3ccccc3c3nc(-c4ccccc4)nn23)cc1
- IC90 (HepG2 [12]): 59.9 µg/mL (≈ 145 µM)
- IC50 (MCF7 [13]): 87 µg/mL (≈ 210 µM)
- IC50 (HepG2 [14]): 33.3 µg/mL (≈ 80.5 µM)
- IC90 (MCF7 [15]): 137 µg/mL (≈ 332 µM)

Compound: Cc1ccc(-c2nc3ccccc3c3cc4ccccc4n23)cc1
- IC50 (A549 [6]): 30.7 µM

Compound: O=C(N/N=C/c1ccc(Cl)cc1)c1ccc(Nc2nc3ccccc3c3nncn23)cc1
- IC50 (HCT-116 [1]): 11 µM
- IC50 (HepG2 [2]): 8.64 µM

Compound: Clc1cc2c(cc1Br)ncn1cnnc21
- IC50 (MCF7 [16]): 3.39 µg/mL (≈ 12 µM)

Compound: COc1ccc(C2CC(c3ccc(Nc4nc5ccccc5c5nncn45)cc3)=NN2)cc1 (configuration not stated)
- IC50 (HepG2 [3]): 16.1 µM

Compound: N#Cc1ccc2c3cc(Cl)c(Br)cc3ncn2c1=O
- IC50 (MCF7 [10]): 4.1 µg/mL (≈ 12.3 µM)

Compound: Clc1ccc2nc(-c3ccccc3)n3c4ccccc4cc3c2c1
- IC50 (A549 [6]): 30.7 µM

Compound: Clc1cccc(Cl)c1/C=N/Nc1nc2ccccc2c2nncn12
- IC50 (HCT-116 [17]): 5.22 µM
- IC50 (HepG2 [18]): 4.43 µM

Compound: O=c1nc(-c2ccc(Nc3nc4ccccc4c4nncn34)cc2)cc(-c2ccccc2)[nH]1
- IC50 (HCT-116 [19]): 11.8 µM

Compound: O=C(N/N=C/c1ccccc1Cl)c1ccc(Nc2nc3ccccc3c3nncn23)cc1
- IC50 (HCT-116 [1]): 5.21 µM
- IC50 (HepG2 [2]): 4.88 µM

Compound: COc1ccc(-c2nc3ccccc3c3cc4ccccc4n23)cc1
- IC50 (A549 [6]): 30.7 µM

Compound: Clc1ccc(-c2nc3ccccc3c3cc4ccccc4n23)cc1
- IC50 (A549 [6]): 30.7 µM

Compound: Cc1c(O)n2cnc3cc(Br)c(Cl)cc3c2nc1=O
- IC50 (MCF7 [10]): 3.5 µg/mL (≈ 10.3 µM)

Compound: Oc1ccc(-c2nc3ccccc3c3cc(-c4ccccc4)nn23)cc1
- GI50 (NCI-H1299 [20]): 2.97 µM
- GI50 (MDA-MB-231 [21]): 1.95 µM

Compound: Cc1ccc(S(=O)(=O)Oc2ccc(-c3nc4ccccc4c4nc(=S)[nH]n34)cc2)cc1
- MIC (Staphylococcus aureus [22]): 3.12 µg/mL (≈ 6.97 µM)
- MIC (Streptococcus pyogenes [23]): 6.25 µg/mL (≈ 13.9 µM)

Compound: O=C(N/N=C/c1c(Cl)cccc1Cl)c1ccc(Nc2nc3ccccc3c3nncn23)cc1
- IC50 (HCT-116 [1]): 7.41 µM
- IC50 (HepG2 [2]): 5.42 µM

Compound: CC(C)(C)CC(C)(C)Nc1nc2ccccc2c2c(C(=O)c3ccc(F)cc3)c(N)nn12
- IC50 (NCI-H1299 [24]): 1.32 µM
- IC50 (A549 [25]): 1.06 µM
- IC50 (cells): < 2.5 µM
- IC50 (NCI-H1299 [26]): < 2.5 µM
- IC50 (MDA-MB-231 [27]): 1.93 µM

Compound: COc1cccc2c1C(=O)c1c(O)c3c(c(O)c1C2=O)C[C@@](O)(C(=O)CO)C[C@@H]3O[C@H]1C[C@H](N)[C@H](O)[C@H](C)O1 [DOXORUBICIN]
- IC50 (HCT-116 [17]): 9.63 µM
- IC50 (DNA): 31.3 µM
- IC50 (HepG2 [3]): 7.94 µM

Compound: CCOC(=O)c1nn2c(NC(C)(C)CC(C)(C)C)nc3ccccc3c2c1C(=O)OCC
- GI50 (A549 [4]): 1.1 µM
- GI50 (NCI-H1299 [20]): 1.29 µM

Compound: FC(F)(F)c1nc2ccccc2c2cc3cc(Cl)ccc3n12
- IC50 (A549 [6]): 30.7 µM

Compound: Cc1ccc2c(c1)cc1c3ccccc3nc(-c3ccccc3)n21
- IC50 (A549 [6]): 30.7 µM

Compound: FC(F)(F)c1ccc2c(c1)cc1c3ccccc3nc(-c3ccccc3)n21
- IC50 (A549 [6]): 30.7 µM

Compound: Oc1ccc(/C=N/Nc2nc3ccccc3c3nncn23)cc1
- IC50 (HepG2 [28]): 4.43 µM
- IC50 (HCT-116 [29]): 48.5 µM

Compound: O=[N+]([O-])c1ccc(-c2nc3ccccc3c3cc4ccccc4n23)cc1
- IC50 (A549 [6]): 30.7 µM

Compound: c1ccc(-c2nc3ccccc3c3cc4ccccc4n23)cc1
- IC50 (A549 [6]): 30.7 µM

Compound: Cc1nc2ccccc2c2cc3ccccc3n12
- IC50 (A549 [6]): 30.7 µM

Compound: COc1ccc(C(=O)c2c(N)nn3c(NC(C)(C)CC(C)(C)C)nc4ccccc4c23)cc1
- IC50 (NCI-H1299 [24]): 2.04 µM
- IC50 (A549 [25]): 1.74 µM
- IC50 (MDA-MB-231 [27]): 2.45 µM

Compound: CCCc1nc2ccccc2c2nc3ccccc3n12
- IC50 [30]: 0.78 µg/mL (≈ 2.98 µM)
- IC50 [31]: 0.78 µg/mL (≈ 2.98 µM)

Compound: Cc1ccc(-c2nc3ccccc3c3cc4cc(Cl)ccc4n23)cc1
- IC50 (A549 [6]): 30.7 µM

Compound: O=C(NNc1nc2ccccc2c2nncn12)NC1CCCCC1
- IC50 (HCT-116 [32]): 5.57 µM
- IC50 (HepG2 [33]): 7.98 µM
- IC50 (DNA): 42.9 µM

Compound: COC(=O)c1nn2c(NC(C)(C)C)nc3cc(Cl)ccc3c2c1C(=O)OC
- IC50 (U-87 MG): 2.6 µM
- IC50 (HCT-116 [34]): 2.3 µM
- IC50 (A549 [35]): 1.1 µM

Compound: O=c1nc2c3cc(Cl)c(Br)cc3ncn2c(O)c1-c1ccccc1
- IC50 (MCF7 [10]): 3.44 µg/mL (≈ 8.54 µM)

Compound: c1ccc(-c2nc3ccccc3c3cccn23)cc1
- IC50 (A549 [6]): 30.7 µM

Compound: Cc1ccc(-c2cc(-c3ccc(Nc4nc5ccccc5c5nncn45)cc3)nc(=O)[nH]2)cc1
- IC50 (HCT-116 [19]): 11.8 µM

Compound: c1ccc(-c2nc3ncccc3c3cc4ccccc4n23)cc1
- IC50 (A549 [6]): 30.7 µM

Compound: CC(C)(C)CC(C)(C)Nc1nc2ccccc2c2c(C#N)c(N)nn12
- IC50 (NCI-H1299 [24]): 2.02 µM
- IC50 (cells): < 2.5 µM
- IC50 (NCI-H1299 [26]): < 2.5 µM
- IC50 (MDA-MB-231 [27]): 1.96 µM

Compound: Nc1ccccc1-c1cc2ccccc2[nH]1
- MIC (Escherichia coli): 2.5 µg/mL (≈ 12 µM)
- MIC (Bacillus subtilis): 2.5 µg/mL (≈ 12 µM)
- MIC (Trichoderma viride): 2.5 µg/mL (≈ 12 µM)
- MIC (Staphylococcus aureus [36]): 2.5 µg/mL (≈ 12 µM)
- MIC (Streptococcus pyogenes [37]): 2.5 µg/mL (≈ 12 µM)
- MIC (Aspergillus niger): 2.5 µg/mL (≈ 12 µM)
- MIC (Candida albicans): 2.5 µg/mL (≈ 12 µM)
- MIC (Klebsiella pneumoniae): 2.5 µg/mL (≈ 12 µM)

Compound: Cc1ccc(C2CC(c3ccc(Nc4nc5ccccc5c5nncn45)cc3)=NN2)cc1 (configuration not stated)
- IC50 (HepG2 [3]): 16.1 µM

Compound: CCCc1nc2cc(C)ccc2c2nc3ccccc3n12
- IC50 [30]: 0.4 µg/mL (≈ 1.45 µM)
- IC50 [31]: 12.5 µg/mL (≈ 45.4 µM)

Compound: COc1ccc(-c2cc(-c3ccc(Nc4nc5ccccc5c5nncn45)cc3)nc(=O)[nH]2)cc1
- IC50 (HCT-116 [19]): 11.8 µM
